Reference: PubChem BioAssay AID1963840 (Molecular Pharmacology Branch, DTP, NCI, 2024)

Tested on: 695427-040-R-J1-PDC complex spheroid viability
Assay: Anticancer human tumor 695427-040-R-J1-PDC patient-derived colon adenocarcinoma cell line growth inhibition [POLQ]
Conditions: for IC50: curve of first compound; for viability, T/C: stronger effect = lower value
In short: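 PDC + HUVEC + MSC complex spheroids; POLQ inhibitors ± partner drugs; top conc. at/near clinical Cmax, else 10 microM (SN-38 1 microM), half-log dilutions; 37 degrees C, 5% CO2.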

[1] = second compound 0.0316 µM, first compound 0.0316 µM
[2] = second compound 0.0316 µM, first compound 0.1 µM
[3] = second compound 0.1 µM, first compound 0.0316 µM
[4] = second compound 0.1 µM, first compound 0.1 µM
[5] = second compound 0.316 µM, first compound 0.0316 µM
[6] = second compound 0.316 µM, first compound 0.1 µM
[7] = second compound 1 µM, first compound 0.0316 µM
[8] = second compound 1 µM, first compound 0.1 µM
[9] = second compound 3.16 µM, first compound 0.0316 µM
[10] = second compound 3.16 µM, first compound 0.1 µM
[11] = second compound 10 µM, first compound 0.0316 µM
[12] = second compound 10 µM, first compound 0.1 µM
[13] = second compound 0.0316 µM, first compound 0.316 µM
[14] = second compound 0.0316 µM, first compound 1 µM
[15] = second compound 0.0316 µM, first compound 3.16 µM
[16] = second compound 0.0316 µM, first compound 10 µM
[17] = second compound 0.1 µM, first compound 0.316 µM
[18] = second compound 0.1 µM, first compound 1 µM
[19] = second compound 0.1 µM, first compound 3.16 µM
[20] = second compound 0.1 µM, first compound 10 µM
[21] = second compound 0.316 µM, first compound 0.316 µM
[22] = second compound 0.316 µM, first compound 1 µM
[23] = second compound 0.316 µM, first compound 3.16 µM
[24] = second compound 0.316 µM, first compound 10 µM
[25] = second compound 1 µM, first compound 0.316 µM
[26] = second compound 1 µM, first compound 1 µM
[27] = second compound 1 µM, first compound 3.16 µM
[28] = second compound 1 µM, first compound 10 µM
[29] = second compound 3.16 µM, first compound 0.316 µM
[30] = second compound 3.16 µM, first compound 1 µM
[31] = second compound 3.16 µM, first compound 3.16 µM
[32] = second compound 3.16 µM, first compound 10 µM
[33] = second compound 10 µM, first compound 0.316 µM
[34] = second compound 10 µM, first compound 1 µM
[35] = second compound 10 µM, first compound 3.16 µM
[36] = second compound 10 µM, first compound 10 µM
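Note: spheroids exposed to compounds for seven days.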
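Throughout, for viability, T/C: 100% = DMSO vehicle control viability.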

`Cn1ncnc1[C@H]1c2n[nH]c(=O)c3cc(F)cc(c23)N[C@@H]1c1ccc(F)cc1` + Cc1cccc(N(C)C(=O)C2C(O)CCN2c2nc(C)cc(C(F)(F)F)c2C#N)c1 showed an IC50 (second compound 0.0316 µM) greater than 0.1 µM, an IC50 (second compound 0.1 µM) greater than 0.1 µM and an IC50 (second compound 0.316 µM) greater than 0.1 µM. The IC50 (second compound 1 µM) was greater than 0.1 µM, the IC50 (second compound 3.16 µM) was greater than 0.1 µM and the IC50 (second compound 10 µM) was greater than 0.1 µM. It also gave a viability, T/C (second compound 0.0316 µM, first compound 0.000316 µM) of 99.1%, a viability, T/C (second compound 0.0316 µM, first compound 0.001 µM) of 97.2% and a viability, T/C (second compound 0.0316 µM, first compound 0.00316 µM) of 102%. For the same compound, the viability, T/C (second compound 0.0316 µM, first compound 0.01 µM) was 99%, the viability, T/C [1] was 99.4% and the viability, T/C [2] was 96.8%. It also gave a viability, T/C (second compound 0.1 µM, first compound 0.000316 µM) of 108%, a viability, T/C (second compound 0.1 µM, first compound 0.001 µM) of 91.2% and a viability, T/C (second compound 0.1 µM, first compound 0.00316 µM) of 98.8%. It also gave a viability, T/C (second compound 0.1 µM, first compound 0.01 µM) of 102%, a viability, T/C [3] of 102% and a viability, T/C [4] of 96.7%. The viability, T/C (second compound 0.316 µM, first compound 0.000316 µM) was 102%, the viability, T/C (second compound 0.316 µM, first compound 0.001 µM) was 102% and the viability, T/C (second compound 0.316 µM, first compound 0.00316 µM) was 96.6%. The viability, T/C (second compound 0.316 µM, first compound 0.01 µM) was 105%, the viability, T/C [5] was 107% and the viability, T/C [6] was 94.7%. The viability, T/C (second compound 1 µM, first compound 0.000316 µM) was 99.2%, the viability, T/C (second compound 1 µM, first compound 0.001 µM) was 98.3% and the viability, T/C (second compound 1 µM, first compound 0.00316 µM) was 89.5%. The viability, T/C (second compound 1 µM, first compound 0.01 µM) was 93.2%, the viability, T/C [7] was 99.3% and the viability, T/C [8] was 94.6%. For the same compound, the viability, T/C (second compound 3.16 µM, first compound 0.000316 µM) was 88.9%, the viability, T/C (second compound 3.16 µM, first compound 0.001 µM) was 101% and the viability, T/C (second compound 3.16 µM, first compound 0.00316 µM) was 92.5%. The viability, T/C (second compound 3.16 µM, first compound 0.01 µM) was 101%, the viability, T/C [9] was 102% and the viability, T/C [10] was 88.8%. It also gave a viability, T/C (second compound 10 µM, first compound 0.000316 µM) of 89.2%, a viability, T/C (second compound 10 µM, first compound 0.001 µM) of 87.4% and a viability, T/C (second compound 10 µM, first compound 0.00316 µM) of 87.8%. For the same compound, the viability, T/C (second compound 10 µM, first compound 0.01 µM) was 88.6%, the viability, T/C [11] was 93.3% and the viability, T/C [12] was 90.4%.

With `O=c1[nH]cc(F)c(=O)[nH]1` + COC1C(OC(N)=O)C(O)C(Oc2ccc3c(O)c(NC(=O)c4ccc(O)c(CC=C(C)C)c4)c(=O)oc3c2C)OC1(C)C the IC50 (second compound 0.0316 µM) was greater than 10 µM, the IC50 (second compound 0.1 µM) was greater than 10 µM and the IC50 (second compound 0.316 µM) was greater than 10 µM. The IC50 (second compound 1 µM) was greater than 10 µM, the IC50 (second compound 3.16 µM) was greater than 10 µM and the IC50 (second compound 10 µM) was greater than 10 µM. It also gave a viability, T/C [1] of 95.8%, a viability, T/C [2] of 101% and a viability, T/C [13] of 111%. It also gave a viability, T/C [14] of 103%, a viability, T/C [15] of 103% and a viability, T/C [16] of 107%. For the same compound, the viability, T/C [3] was 106%, the viability, T/C [4] was 107% and the viability, T/C [17] was 108%. It also gave a viability, T/C [18] of 106%, a viability, T/C [19] of 112% and a viability, T/C [20] of 97.2%. The viability, T/C [5] was 114%, the viability, T/C [6] was 106% and the viability, T/C [21] was 112%. The viability, T/C [22] was 99.5%, the viability, T/C [23] was 109% and the viability, T/C [24] was 96.4%. For the same compound, the viability, T/C [7] was 104%, the viability, T/C [8] was 101% and the viability, T/C [25] was 108%. The viability, T/C [26] was 101%, the viability, T/C [27] was 97.6% and the viability, T/C [28] was 96.8%. For the same compound, the viability, T/C [9] was 109%, the viability, T/C [10] was 97.7% and the viability, T/C [29] was 99.2%. For the same compound, the viability, T/C [30] was 105%, the viability, T/C [31] was 106% and the viability, T/C [32] was 97.9%. For the same compound, the viability, T/C [11] was 99.6%, the viability, T/C [12] was 97.1% and the viability, T/C [33] was 105%. It also gave a viability, T/C [34] of 101%, a viability, T/C [35] of 98.3% and a viability, T/C [36] of 101%.

In the case of `CCc1cc2c(N3CCc4c(cc(Cn5ccnc5)cc4-c4cn(C)nc4C(F)(F)F)C3=O)cc(C)nc2c(OC)n1` + COC1C(OC(N)=O)C(O)C(Oc2ccc3c(O)c(NC(=O)c4ccc(O)c(CC=C(C)C)c4)c(=O)oc3c2C)OC1(C)C, the IC50 (second compound 0.0316 µM) is reported as greater than 10 µM, the IC50 (second compound 0.1 µM) is reported as greater than 10 µM and the IC50 (second compound 0.316 µM) is reported as greater than 10 µM. The IC50 (second compound 1 µM) was greater than 10 µM, the IC50 (second compound 3.16 µM) was greater than 10 µM and the IC50 (second compound 10 µM) was greater than 10 µM. It also gave a viability, T/C [1] of 106%, a viability, T/C [2] of 103% and a viability, T/C [13] of 111%. The viability, T/C [14] was 107%, the viability, T/C [15] was 108% and the viability, T/C [16] was 99.1%. It also gave a viability, T/C [3] of 114%, a viability, T/C [4] of 104% and a viability, T/C [17] of 105%. The viability, T/C [18] was 96.5%, the viability, T/C [19] was 111% and the viability, T/C [20] was 117%. For the same compound, the viability, T/C [5] was 107%, the viability, T/C [6] was 112% and the viability, T/C [21] was 106%. It also gave a viability, T/C [22] of 109%, a viability, T/C [23] of 110% and a viability, T/C [24] of 97.8%. For the same compound, the viability, T/C [7] was 108%, the viability, T/C [8] was 108% and the viability, T/C [25] was 105%. For the same compound, the viability, T/C [26] was 101%, the viability, T/C [27] was 120% and the viability, T/C [28] was 99.3%. It also gave a viability, T/C [9] of 117%, a viability, T/C [10] of 109% and a viability, T/C [29] of 113%. It also gave a viability, T/C [30] of 105%, a viability, T/C [31] of 115% and a viability, T/C [32] of 97.3%. It also gave a viability, T/C [11] of 116%, a viability, T/C [12] of 118% and a viability, T/C [33] of 110%. For the same compound, the viability, T/C [34] was 109%, the viability, T/C [35] was 117% and the viability, T/C [36] was 122%.
